According to PubChem BioAssay AID330 (DTP/NCI, 2004):
Several values for one entry are separate records, joined by “and”; a condition that tells them apart may be missing. Identical values can stand only once. Inconclusive results and toxic doses are left out. The calls were made as follows: active = survival T/C of 150% or more; inactive = T/C below 125% in these data.

Tested on: P388 leukemia ip, CD2F1 mice, survival T/C
Assay: NCI In Vivo Anticancer Drug Screen. Data for tumor model P388 Leukemia (intraperitoneal) in CD2F1 (CDF1) mice
Conditions: endpoint: median survival time, higher = longer survival
Procedure, shortened: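 Mice carrying the transplanted tumor received test compound or vehicle. Survival was recorded in each group, and the value is the treated-group measurement divided by that of the vehicle-treated control group.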

[1] = dose: 60.0 mg/kg/injection, schedule: Q01DX005 (ip), vehicle: saline
[2] = dose: 120.0 mg/kg/injection, schedule: Q01DX005 (ip), vehicle: saline
[3] = dose: 240.0 mg/kg/injection, schedule: Q01DX005 (ip), vehicle: saline
[4] = dose: 50.0 mg/kg/injection, schedule: Q01DX005 (ip), vehicle: Klucel (hydroxypropylcellulose) (HPC)
[5] = dose: 50.0 mg/kg/injection, schedule: Q01DX005 (ip), vehicle: saline with Tween-80
[6] = dose: 100.0 mg/kg/injection, schedule: Q01DX005 (ip), vehicle: Klucel (hydroxypropylcellulose) (HPC)
[7] = dose: 100.0 mg/kg/injection, schedule: Q01DX005 (ip), vehicle: saline with Tween-80
[8] = dose: 12.5 mg/kg/injection, schedule: Q01DX009 (ip), vehicle: saline with Tween-80
[9] = dose: 25.0 mg/kg/injection, schedule: Q01DX009 (ip), vehicle: saline with Tween-80
[10] = dose: 50.0 mg/kg/injection, schedule: Q01DX009 (ip), vehicle: Klucel (hydroxypropylcellulose) (HPC)
[11] = dose: 100.0 mg/kg/injection, schedule: Q01DX009 (ip), vehicle: Klucel (hydroxypropylcellulose) (HPC)
[12] = dose: 200.0 mg/kg/injection, schedule: Q01DX009 (ip), vehicle: Klucel (hydroxypropylcellulose) (HPC)
[13] = dose: 200.0 mg/kg/injection, schedule: Q01DX005 (ip), vehicle: Klucel (hydroxypropylcellulose) (HPC)
[14] = dose: 12.5 mg/kg/injection, schedule: Q04DX003 (ip), vehicle: saline with Tween-80
[15] = dose: 25.0 mg/kg/injection, schedule: Q04DX003 (ip), vehicle: saline with Tween-80
[16] = dose: 50.0 mg/kg/injection, schedule: Q04DX003 (ip), vehicle: saline with Tween-80
[17] = dose: 100.0 mg/kg/injection, schedule: Q04DX003 (ip), vehicle: saline with Tween-80
[18] = dose: 50.0 mg/kg/injection, schedule: Q01DX009 (ip), vehicle: saline with Tween-80
[19] = dose: 100.0 mg/kg/injection, schedule: Q01DX009 (ip), vehicle: saline with Tween-80
[20] = dose: 60.0 mg/kg/injection, schedule: Q01DX005 (ip), vehicle: saline with Tween-80
[21] = dose: 120.0 mg/kg/injection, schedule: Q01DX005 (ip), vehicle: saline with Tween-80

Measured: T/C

Nc1nnc2nc(CC(=O)c3ccc4ccccc4c3)c(=O)[nH]n12
inactive: [1] 95 % of control | [2] 100 % of control | [3] 103 % of control

COc1cc2c(c3c1c(=O)c1ccccc1n3C)C=CC(C)(C)O2
inactive: dose: 7.5 mg/kg/injection, schedule: Q01DX009 (ip), vehicle: saline with Tween-80 99 % of control | dose: 12.5 mg/kg/injection, schedule: Q01DX005 (ip), vehicle: saline with Tween-80 92 % of control | dose: 15.0 mg/kg/injection, schedule: Q01DX009 (ip), vehicle: saline with Tween-80 98 % of control | dose: 25.0 mg/kg/injection, schedule: Q01DX005 (ip), vehicle: Klucel (hydroxypropylcellulose) (HPC) 97 % of control | dose: 25.0 mg/kg/injection, schedule: Q01DX005 (ip), vehicle: saline with Tween-80 92 % of control | dose: 30.0 mg/kg/injection, schedule: Q01DX009 (ip), vehicle: saline with Tween-80 103 % of control | [4] 112 % of control | [5] 112 % of control | [6] 118 % of control | [7] 113 % of control

COc1ccccc1C1OC2=C(Nc3ccc(Cl)cc3N2)C1=O (configuration not stated)
inactive: dose: 7.5 mg/kg/injection, schedule: Q01DX005 (ip), vehicle: Klucel (hydroxypropylcellulose) (HPC) 100 % of control | dose: 15.0 mg/kg/injection, schedule: Q01DX005 (ip), vehicle: Klucel (hydroxypropylcellulose) (HPC) 93 % of control | dose: 30.0 mg/kg/injection, schedule: Q01DX005 (ip), vehicle: Klucel (hydroxypropylcellulose) (HPC) 87 % of control

[O-]c1ccc[n+]2c1sc1ncccc12 (tested in a mixture with another compound)
inactive: [5] 107 % of control | [7] 107 % of control | dose: 200.0 mg/kg/injection, schedule: Q01DX005 (ip), vehicle: saline with Tween-80 105 % of control

CCN(CC)CCOc1ccc(NC2=C(Cl)C(=O)C(Nc3ccc(OCCN(CC)CC)cc3)=C(Cl)C2=O)cc1
inactive: dose: 3.13 mg/kg/injection, schedule: Q01DX009 (ip), vehicle: saline + alcohol 103 % of control | dose: 6.25 mg/kg/injection, schedule: Q01DX009 (ip), vehicle: saline + alcohol 110 % of control | dose: 12.5 mg/kg/injection, schedule: Q01DX009 (ip), vehicle: saline + alcohol 112 % of control | [8] 105 % of control | [9] 106 % of control

COc1ccc(C2OC(=O)C(=O)C2=O)cc1OC (configuration not stated)
inactive: dose: 60.0 mg/kg/injection, schedule: Q01DX005 (ip), vehicle: Klucel (hydroxypropylcellulose) (HPC) 100 % of control | dose: 120.0 mg/kg/injection, schedule: Q01DX005 (ip), vehicle: Klucel (hydroxypropylcellulose) (HPC) 107 % of control | dose: 240.0 mg/kg/injection, schedule: Q01DX005 (ip), vehicle: Klucel (hydroxypropylcellulose) (HPC) 105 % of control

Cc1ccc2sc(=S)sc2c1
inactive: [10] 89 % of control | [11] 99 % of control | [12] 96 % of control

O=C(Nc1ccc(Sc2ccc(N=Nc3c(O)c(S(=O)(=O)O)cc4cc(S(=O)(=O)O)ccc34)cc2)cc1)c1ccc(N=Nc2c(O)ccc3c(S(=O)(=O)O)cc(S(=O)(=O)O)cc23)cc1
inactive: [4] 102 % of control | [6] 97 % of control | [13] 109 % of control

CCOC(=O)NN(C(=O)OCC)c1c(NC)n(C)c(=O)n(C)c1=O
inactive: [10] 100 % of control | [11] 106 % of control | [12] 89 % of control

Cc1ncc([N+](=O)[O-])n1CCOC(=O)c1ccc(Cl)cc1
inactive: [10] 102 % of control | [11] 100 % of control | [12] 98 % of control

O=C(CP(=O)(O)O)OC1CCCCC1
inactive: dose: 100.0 mg/kg/injection, schedule: Q01DX001 (ip), vehicle: saline 101 % of control | dose: 200.0 mg/kg/injection, schedule: Q01DX001 (ip), vehicle: saline 101 % of control | dose: 400.0 mg/kg/injection, schedule: Q01DX001 (ip), vehicle: saline 100 % of control

CCOC(C)c1nc2c([nH]1)c(=O)n(C)c(=O)n2C (configuration not stated)
inactive: [1] 99 % of control | [2] 101 % of control | [3] 95 % of control

Cc1cn(CCCCCCCCCCCCOc2c3occc3cc3ccc(=O)oc23)c(=O)[nH]c1=O
inactive: dose: 50.0 mg/kg/injection, schedule: Q04DX002 (ip), vehicle: Klucel (hydroxypropylcellulose) (HPC) 96 % of control | dose: 100.0 mg/kg/injection, schedule: Q04DX002 (ip), vehicle: Klucel (hydroxypropylcellulose) (HPC) 98 % of control | [13] 92 % of control | dose: 200.0 mg/kg/injection, schedule: Q04DX002 (ip), vehicle: Klucel (hydroxypropylcellulose) (HPC) 95 % of control

Cc1cc(C)c(C#N)c(=O)[nH]1
inactive: [14] 97 % of control | [15] 103 % of control | [16] 105 % of control | [17] 103 % of control

CSc1cccc(NC(=O)Oc2c(Cl)cccc2Cl)c1
inactive: dose: 50.0 mg/kg/injection, schedule: Q01DX009 (ip), vehicle: gum acacia 113 % of control | dose: 100.0 mg/kg/injection, schedule: Q01DX009 (ip), vehicle: gum acacia 111 % of control

O=[N+]([O-])c1cc(Cl)c(Cl)cc1[N+](=O)[O-]
inactive: [18] 98 % of control | [19] 111 % of control

CN1c2ccccc2C(=O)N2C(=O)CCC21C (configuration not stated)
inactive: [20] 102 % of control | [21] 88 % of control

CCOC(=O)C(=CNc1ccccc1)C(=O)OCC
inactive: [9] 103 % of control | [18] 100 % of control | [19] 103 % of control | dose: 200.0 mg/kg/injection, schedule: Q01DX009 (ip), vehicle: saline with Tween-80 100 % of control

C[N+](C)(C)CC(=O)O
inactive: dose: 10.0 mg/kg/injection, schedule: Q01DX005 (ip), vehicle: saline 104 % of control | dose: 20.0 mg/kg/injection, schedule: Q01DX005 (ip), vehicle: saline 99 % of control | dose: 31.25 mg/kg/injection, schedule: Q01DX005 (ip), vehicle: saline 100 % of control | dose: 40.0 mg/kg/injection, schedule: Q01DX005 (ip), vehicle: saline 98 % of control | dose: 62.5 mg/kg/injection, schedule: Q01DX005 (ip), vehicle: saline 105 % of control | dose: 125.0 mg/kg/injection, schedule: Q01DX005 (ip), vehicle: saline 91 % of control | dose: 250.0 mg/kg/injection, schedule: Q01DX005 (ip), vehicle: saline 87 % of control

O=c1[nH]c(=O)n(COCc2ccccc2)cc1F
inactive: dose: 25.0 mg/kg/injection, schedule: Q04DX003 (ip), vehicle: saline 98 % of control | dose: 50.0 mg/kg/injection, schedule: Q04DX003 (ip), vehicle: saline 98 % of control | dose: 100.0 mg/kg/injection, schedule: Q04DX003 (ip), vehicle: saline 98 % of control and 97 % of control | dose: 200.0 mg/kg/injection, schedule: Q04DX003 (ip), vehicle: saline 95 % of control | dose: 400.0 mg/kg/injection, schedule: Q04DX003 (ip), vehicle: saline 98 % of control

CC1CC(=O)Nc2ncnc(N)c21 (configuration not stated)
inactive: [20] 98 % of control | [21] 106 % of control | dose: 240.0 mg/kg/injection, schedule: Q01DX005 (ip), vehicle: saline with Tween-80 108 % of control

COc1ccccc1N1CCN(CCc2c[nH]c3cc4c(cc23)OCO4)CC1
inactive: dose: 6.25 mg/kg/injection, schedule: Q01DX009 (ip), vehicle: saline with Tween-80 92 % of control | [8] 100 % of control | [14] 114 % of control | dose: 18.75 mg/kg/injection, schedule: Q01DX009 (ip), vehicle: Klucel (hydroxypropylcellulose) (HPC) 108 % of control | [9] 101 % of control | [15] 120 % of control | dose: 37.5 mg/kg/injection, schedule: Q01DX009 (ip), vehicle: Klucel (hydroxypropylcellulose) (HPC) 101 % of control | [18] 104 % of control | [16] 123 % of control | dose: 75.0 mg/kg/injection, schedule: Q01DX009 (ip), vehicle: Klucel (hydroxypropylcellulose) (HPC) 88 % of control | [17] 121 % of control

O=C1c2ccccc2-c2c(NC(=O)C(Cl)Cl)cccc21
inactive: [4] 87 % of control | [6] 86 % of control | [13] 86 % of control
